Laboratory results: PMC12155096 (International Journal of Molecular Sciences, 2025)
Counter-ions that a name gives are not always drawn. Like-named read-outs stand apart in the source and are kept apart here.

Assays:
[1] = molecular target: Photinus pyralis (firefly) luciferase (Photinus pyralis, UniProt P08659); assay: biochemical; type: biochemical; design: Luciferase Efficacy: unit not given here
human CYP1A2 [2] = molecular target: T1, human CYP1A2 (Homo sapiens, UniProt P05177); assay: biochemical
T1 sequence (P05177 1-516): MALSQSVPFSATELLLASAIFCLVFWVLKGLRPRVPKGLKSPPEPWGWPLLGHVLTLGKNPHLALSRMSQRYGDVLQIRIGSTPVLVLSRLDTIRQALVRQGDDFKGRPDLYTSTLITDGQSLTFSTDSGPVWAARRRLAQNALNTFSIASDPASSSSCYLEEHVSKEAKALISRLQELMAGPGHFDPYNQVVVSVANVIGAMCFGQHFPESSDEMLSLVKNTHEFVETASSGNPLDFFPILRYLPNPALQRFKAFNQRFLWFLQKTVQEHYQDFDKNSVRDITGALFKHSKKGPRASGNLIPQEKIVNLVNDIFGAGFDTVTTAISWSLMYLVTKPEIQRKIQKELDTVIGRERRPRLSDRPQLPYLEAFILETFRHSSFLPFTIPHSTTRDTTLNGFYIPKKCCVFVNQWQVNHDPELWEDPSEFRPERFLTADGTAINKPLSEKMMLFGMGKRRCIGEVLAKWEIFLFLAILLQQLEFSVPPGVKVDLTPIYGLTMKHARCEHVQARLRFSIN

human CYP2C9 [3] = molecular target: T2, human CYP2C9 (Homo sapiens, UniProt P11712); assay: biochemical
T2 sequence (P11712 whole entry): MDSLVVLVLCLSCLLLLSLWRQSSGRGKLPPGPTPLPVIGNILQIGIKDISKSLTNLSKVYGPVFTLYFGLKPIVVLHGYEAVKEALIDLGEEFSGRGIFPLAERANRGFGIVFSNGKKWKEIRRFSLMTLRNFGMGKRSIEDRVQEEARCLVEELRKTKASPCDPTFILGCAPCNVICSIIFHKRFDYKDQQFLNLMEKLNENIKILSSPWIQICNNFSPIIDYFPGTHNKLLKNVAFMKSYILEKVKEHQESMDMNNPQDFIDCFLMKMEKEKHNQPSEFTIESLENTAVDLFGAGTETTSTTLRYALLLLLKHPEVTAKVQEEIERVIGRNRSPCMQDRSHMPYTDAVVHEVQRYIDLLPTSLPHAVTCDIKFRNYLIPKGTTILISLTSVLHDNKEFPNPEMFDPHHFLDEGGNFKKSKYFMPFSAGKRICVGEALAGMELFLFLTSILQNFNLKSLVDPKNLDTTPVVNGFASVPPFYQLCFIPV

human CYP2C19 [4] = molecular target: T3, human CYP2C19 (Homo sapiens, UniProt P33261); assay: biochemical; conditions: for AC50: CYP2C19 AC50 (half-maximal activity concentration)
T3 sequence (P33261 whole entry): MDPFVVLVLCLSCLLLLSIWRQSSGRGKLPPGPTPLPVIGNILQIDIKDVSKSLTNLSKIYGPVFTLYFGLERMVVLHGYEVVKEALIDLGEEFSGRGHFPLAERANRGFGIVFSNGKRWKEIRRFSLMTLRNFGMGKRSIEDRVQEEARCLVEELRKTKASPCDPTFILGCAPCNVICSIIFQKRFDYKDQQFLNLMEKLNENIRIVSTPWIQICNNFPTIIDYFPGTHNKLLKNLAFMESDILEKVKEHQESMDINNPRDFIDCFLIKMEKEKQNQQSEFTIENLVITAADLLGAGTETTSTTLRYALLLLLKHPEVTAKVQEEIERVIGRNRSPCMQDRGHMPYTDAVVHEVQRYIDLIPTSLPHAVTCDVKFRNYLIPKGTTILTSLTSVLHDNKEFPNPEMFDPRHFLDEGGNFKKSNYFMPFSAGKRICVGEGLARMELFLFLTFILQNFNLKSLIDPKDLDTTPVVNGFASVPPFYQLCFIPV

human CYP2D6 = human CYP2D6 (Homo sapiens, UniProt P10635); assay: biochemical
Sequence of human CYP2D6 (P10635 whole entry): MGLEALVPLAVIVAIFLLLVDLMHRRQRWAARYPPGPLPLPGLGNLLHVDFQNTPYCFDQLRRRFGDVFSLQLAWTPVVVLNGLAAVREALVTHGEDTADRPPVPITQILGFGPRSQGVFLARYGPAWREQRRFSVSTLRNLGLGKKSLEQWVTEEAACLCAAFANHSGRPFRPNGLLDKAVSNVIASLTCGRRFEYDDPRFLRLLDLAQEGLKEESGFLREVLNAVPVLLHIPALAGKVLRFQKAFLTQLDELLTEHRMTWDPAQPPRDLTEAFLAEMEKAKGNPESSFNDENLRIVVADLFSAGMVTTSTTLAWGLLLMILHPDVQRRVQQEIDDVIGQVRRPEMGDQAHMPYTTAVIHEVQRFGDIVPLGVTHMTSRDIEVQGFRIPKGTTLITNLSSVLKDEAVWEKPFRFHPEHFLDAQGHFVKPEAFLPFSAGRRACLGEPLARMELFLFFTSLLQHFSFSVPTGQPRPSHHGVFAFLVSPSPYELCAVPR

CYP3A4 = CYP3A4 (Homo sapiens, UniProt P08684); assay: biochemical
Sequence of CYP3A4 (P08684 whole entry): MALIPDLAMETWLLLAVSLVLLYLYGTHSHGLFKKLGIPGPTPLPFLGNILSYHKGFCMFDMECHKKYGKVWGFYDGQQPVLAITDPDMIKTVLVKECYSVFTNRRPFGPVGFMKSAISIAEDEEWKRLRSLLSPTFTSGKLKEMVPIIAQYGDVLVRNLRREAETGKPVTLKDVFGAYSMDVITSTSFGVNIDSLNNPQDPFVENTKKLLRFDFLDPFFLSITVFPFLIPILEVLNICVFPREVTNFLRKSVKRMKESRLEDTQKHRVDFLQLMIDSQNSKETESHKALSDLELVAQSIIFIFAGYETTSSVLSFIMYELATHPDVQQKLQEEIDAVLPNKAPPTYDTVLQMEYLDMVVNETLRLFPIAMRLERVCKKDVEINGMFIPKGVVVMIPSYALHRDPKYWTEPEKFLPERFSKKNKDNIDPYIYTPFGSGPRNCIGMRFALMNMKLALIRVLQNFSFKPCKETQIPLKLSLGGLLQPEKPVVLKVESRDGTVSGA

human CYP1A2 [5] = molecular target: T1, human CYP1A2
human CYP2C9 [6] = molecular target: T2, human CYP2C9
human CYP2C19 [7] = molecular target: T3, human CYP2C19
[8] = CYP1A2 IC50 (half-maximal inhibitory concentration)
[9] = CYP2C19 IC50 (half-maximal inhibitory concentration)
[10] = CYP3A4 IC50 (half-maximal inhibitory concentration)
[11] = CYP1A2 AC50 (half-maximal activity concentration)
[12] = CYP2D6 AC50 (half-maximal activity concentration)
[13] = CYP3A4 AC50 (half-maximal activity concentration)
[14] = CYP2C9 IC50 (half-maximal inhibitory concentration)
[15] = CYP2D6 IC50 (half-maximal inhibitory concentration)

Sequence of Photinus pyralis (firefly) luciferase (P08659 whole entry): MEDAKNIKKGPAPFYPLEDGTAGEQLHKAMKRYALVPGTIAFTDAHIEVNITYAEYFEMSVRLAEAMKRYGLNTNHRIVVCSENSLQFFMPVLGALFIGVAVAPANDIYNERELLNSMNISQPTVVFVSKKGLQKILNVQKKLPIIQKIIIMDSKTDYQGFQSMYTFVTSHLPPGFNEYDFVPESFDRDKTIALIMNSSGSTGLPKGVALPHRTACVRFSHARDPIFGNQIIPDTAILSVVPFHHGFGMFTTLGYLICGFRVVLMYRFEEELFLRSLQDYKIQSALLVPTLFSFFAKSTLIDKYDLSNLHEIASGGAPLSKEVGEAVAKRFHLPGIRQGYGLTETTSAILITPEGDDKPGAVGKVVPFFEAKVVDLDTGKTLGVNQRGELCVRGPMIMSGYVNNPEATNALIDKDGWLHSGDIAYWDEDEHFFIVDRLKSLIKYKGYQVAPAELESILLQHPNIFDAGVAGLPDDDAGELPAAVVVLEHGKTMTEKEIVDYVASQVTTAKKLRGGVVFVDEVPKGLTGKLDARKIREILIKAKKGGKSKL

## Cc1cc(C)c(N)cc1C [2,4,5-Trimethylaniline]
[1]
  IC50: 15.8 µM
Human CYP1A2 [2]; CYP1A2 IC50
  IC50: 0.87 µM
Human CYP1A2 [2]; IC50 CYP1A2 assay
  IC50: 0.79 µM
Human CYP2C9 [3]; CYP2C9 IC50
  IC50: 32.9 µM
Human CYP2C19 [4]; CYP2C19 IC50
  IC50: 9.81 µM
Human CYP2D6; CYP2D6 IC50
  IC50: 38.1 µM
CYP3A4; CYP3A4 IC50
  IC50: 35.5 µM

## CCOP(=S)(OCC)SCCS(=O)(=O)CC [Disulfoton sulfone]
[1]
  Luciferase IC50 (half-maximal inhibitory concentration): Inactive
Human CYP1A2 [2]; [8]
  IC50: 26 µM
Human CYP2C9 [3]
  IC50: 1.64 µM
Human CYP2C19 [4]; [9]
  IC50: 0.3 µM
Human CYP2D6
  IC50: 13.4 µM
CYP3A4; [10]
  IC50: 2.61 µM

## Cc1ccccc1NC(=N)Nc1ccccc1C [1,3-Bis(2-methylphenyl)guanidine]
[1]
  Luciferase IC50: Inactive
Human CYP1A2 [5]
  CYP1A2 IC50: Inactive
Human CYP2C19 [4]; CYP2C19 IC50
  IC50: 1.11 µM
Human CYP2D6; CYP2D6 IC50
  IC50: 0.01 µM
CYP3A4; CYP3A4 IC50
  IC50: 41 µM

## C[C@H]1CCCC(=O)CCC/C=C/c2cc(O)cc(O)c2C(=O)O1 [Zearalenone]
[1]
  Luciferase IC50 (half-maximal inhibitory concentration): Inactive
Human CYP1A2 [2]; [8]
  IC50: 25.3 µM
Human CYP2C9 [3]
  IC50: 5.74 µM
Human CYP2C19 [4]; [9]
  IC50: 16.6 µM
Human CYP2D6
  IC50: 46.5 µM
CYP3A4; [10]
  IC50: 0.12 µM

## O=C1C2(Cl)C3(Cl)C4(Cl)C(Cl)(Cl)C5(Cl)C3(Cl)C1(Cl)C5(Cl)C24Cl (stereo not drawn) [Kepone]
[1]
  Luciferase IC50: Inactive
Human CYP1A2 [2]; CYP1A2 IC50
  IC50: 36.4 µM
Human CYP2C9 [3]
  IC50: 6.47 µM
Human CYP2C19 [4]; CYP2C19 IC50
  IC50: 0.87 µM
Human CYP2D6
  IC50: 67.9 µM
CYP3A4; CYP3A4 IC50
  IC50: 3.13 µM

## Cc1cccc2sc(N)nc12 [2-Amino-4-methylbenzothiazole]
Human CYP2C9 [6]
  CYP2C9 AC50 (half-maximal activity concentration): Inconclusive inhibitor
Human CYP1A2 [2]; [11]
  AC50: 21.2 µM
Human CYP2C19 [4]
  AC50: 27.8 µM
Human CYP2D6; [12]
  AC50: 41.1 µM
CYP3A4; [13]
  AC50: 11.8 µM

## OC(Cc1ccccc1Cl)(Cn1nc[nH]c1=S)C1(Cl)CC1 (stereo not drawn) [Prothioconazole]
[1]
  IC50: 65.8 µM
  Luciferase Efficacy: 65.83 ± 4.46 (-26 ± 4) %
Human CYP1A2 [2]; [8]
  IC50: 41.9 µM
Human CYP2C9 [3]; [14]
  IC50: 0.93 µM
Human CYP2C19 [4]; [9]
  IC50: 2.55 µM
Human CYP2D6; [15]
  IC50: 47.5 µM
CYP3A4; [10]
  IC50: 8 µM

## COC(=O)N(C(=O)N1CO[C@@]2(C(=O)OC)Cc3cc(Cl)ccc3C2=N1)c1ccc(OC(F)(F)F)cc1 [Indoxacarb]
[1]
  Luciferase IC50 (half-maximal inhibitory concentration): Inactive
Human CYP1A2 [5]
  CYP1A2 IC50 (half-maximal inhibitory concentration): Inactive
Human CYP2C9 [3]; [14]
  IC50: 3.35 µM
Human CYP2C19 [4]; [9]
  IC50: 0.17 µM
Human CYP2D6; [15]
  IC50: 14 µM
CYP3A4; [10]
  IC50: 2.61 µM

## Cc1cc(O)c(C(C)(C)C)cc1Sc1cc(C(C)(C)C)c(O)cc1C [4,4'-Thiobis(6-tert-butyl-m-cresol)]
[1]
  Luciferase IC50 (half-maximal inhibitory concentration): Inactive
Human CYP1A2 [2]; [8]
  IC50: 40 µM
Human CYP2C9 [3]; [14]
  IC50: 4.21 µM
Human CYP2C19 [4]; [9]
  IC50: 0.38 µM
Human CYP2D6; [15]
  IC50: 24.4 µM
CYP3A4; [10]
  IC50: 7.29 µM

## CCCCC(O)(Cn1cncn1)c1ccc(Cl)cc1Cl (stereo not drawn) [Hexaconazole]
[1]
  Luciferase IC50 (half-maximal inhibitory concentration): Inactive
Human CYP1A2 [2]; [8]
  IC50: 37 µM
Human CYP2C9 [3]; [14]
  IC50: 0.52 µM
Human CYP2C19 [4]; [9]
  IC50: 0.3 µM
Human CYP2D6; [15]
  IC50: 33 µM
CYP3A4; [10]
  IC50: 0.11 µM

## CCN(CC)c1nc(C)cc(OP(=S)(OC)OC)n1 [Pirimiphos-methyl]
[1]
  Luciferase IC50 (half-maximal inhibitory concentration): Inactive
Human CYP1A2 [2]; [8]
  IC50: 1.49 µM
Human CYP2C9 [3]
  IC50: 23.6 µM
Human CYP2C19 [4]; [9]
  IC50: 0.19 µM
Human CYP2D6
  IC50: 53.3 µM
CYP3A4; [10]
  IC50: 2.22 µM

## COC(=O)c1c(C(F)F)nc(C(F)(F)F)c(C2=NCCS2)c1CC(C)C [Thiazopyr]
[1]
  Luciferase IC50 (half-maximal inhibitory concentration): Inactive
Human CYP1A2 [2]; [8]
  IC50: 0.4 µM
Human CYP2C9 [3]; [14]
  IC50: 34.3 µM
Human CYP2C19 [4]; [9]
  IC50: 5.43 µM
Human CYP2D6; [15]
  IC50: 54.3 µM
CYP3A4; [10]
  IC50: 1.93 µM

## CCCCOCN(C(=O)CCl)c1c(CC)cccc1CC [Butachlor]
[1]
  Luciferase IC50 (half-maximal inhibitory concentration): Inactive
Human CYP1A2 [2]; [8]
  IC50: 51.6 µM
Human CYP2C9 [3]; [14]
  IC50: 5.09 µM
Human CYP2C19 [4]; [9]
  IC50: 0.83 µM
Human CYP2D6; [15]
  IC50: 50.9 µM
CYP3A4; [10]
  IC50: 6.9 µM

## CCOP(=S)(OCC)SC(CCl)N1C(=O)c2ccccc2C1=O (stereo not drawn) [Dialifor]
[1]
  Luciferase IC50 (half-maximal inhibitory concentration): Inactive
Human CYP1A2 [2]; [8]
  IC50: 68.4 µM
Human CYP2C9 [3]
  IC50: 1.13 µM
Human CYP2C19 [4]; [9]
  IC50: 0.38 µM
Human CYP2D6
  IC50: 38.5 µM
CYP3A4; [10]
  IC50: 1.65 µM

## Cc1ccnc2ccccc12 [Lepidine]
Human CYP2C9 [6]
  CYP2C9 AC50 (half-maximal activity concentration): Inconclusive activator
Human CYP2C19 [7]
  CYP2C19 AC50 (half-maximal activity concentration): Inconclusive
Human CYP1A2 [2]
  AC50: 38.4 µM
Human CYP2D6
  AC50: 61.3 µM
CYP3A4
  AC50: 31.1 µM

## CCOP(=S)(OCC)SCSP(=S)(OCC)OCC [Ethion]
[1]
  Luciferase IC50: Inactive
Human CYP1A2 [2]; CYP1A2 IC50
  IC50: 19.6 µM
Human CYP2C9 [3]
  IC50: 0.52 µM
Human CYP2C19 [4]; CYP2C19 IC50
  IC50: 0.34 µM
Human CYP2D6
  IC50: 37 µM
CYP3A4; CYP3A4 IC50
  IC50: 0.97 µM

## CCOC(=O)C(SP(=S)(OC)OC)c1ccccc1 (stereo not drawn) [Phenthoate]
[1]
  Luciferase IC50: Inactive
Human CYP1A2 [2]; CYP1A2 IC50
  IC50: 3.79 µM
Human CYP2C9 [3]
  IC50: 1.28 µM
Human CYP2C19 [4]; CYP2C19 IC50
  IC50: 0.3 µM
Human CYP2D6
  IC50: 49.3 µM
CYP3A4; CYP3A4 IC50
  IC50: 3.33 µM

## COc1cccc(C(=O)NN(C(=O)c2cc(C)cc(C)c2)C(C)(C)C)c1C [Methoxyfenozide]
[1]
  Luciferase IC50 (half-maximal inhibitory concentration): Inactive
Human CYP1A2 [5]
  CYP1A2 IC50 (half-maximal inhibitory concentration): Inactive
Human CYP2C9 [3]; [14]
  IC50: 18.1 µM
Human CYP2C19 [4]; [9]
  IC50: 3.43 µM
Human CYP2D6; [15]
  IC50: 44 µM
CYP3A4; [10]
  IC50: 0.74 µM

## O=C(CCN1CCC(c2ccccc2)C1)c1ccc2c(c1)OCCO2 (stereo not drawn) [Proroxan]
Human CYP2C9 [6]
  CYP2C9 AC50 (half-maximal activity concentration): Inconclusive inhibitor
Human CYP1A2 [2]; [11]
  AC50: 32.3 µM
Human CYP2C19 [4]
  AC50: 39.1 µM
Human CYP2D6; [12]
  AC50: 2.28 µM
CYP3A4; [13]
  AC50: 28.8 µM

## COc1cc(N)c(Cl)cc1C(=O)NC1CCN(Cc2ccccc2)CC1 [Clebopride maleate]
[1]
  Luciferase IC50 (half-maximal inhibitory concentration): Inactive
Human CYP1A2 [5]
  CYP1A2 IC50 (half-maximal inhibitory concentration): Inactive
Human CYP2C9 [6]
  CYP2C9 IC50 (half-maximal inhibitory concentration): Inactive
Human CYP2C19 [4]
  IC50: 38.9 µM
Human CYP2D6
  IC50: 0.03 µM
CYP3A4
  IC50: 2.06 ± 0.47 µM

## Nc1ccc(N)c2c1C(=O)c1ccccc1C2=O [1,4-Diaminoanthraquinone]
[1]
  IC50: 15.2 µM
Human CYP1A2 [2]; [8]
  IC50: 0.35 µM
Human CYP2C19 [4]; [9]
  IC50: 24.7 µM
Human CYP2D6; [15]
  IC50: 33 µM
CYP3A4; [10]
  IC50: 5.17 µM

## COc1ccc(C(O)(c2cncnc2)C2CC2)cc1 (stereo not drawn) [Ancymidol]
[1]
  Luciferase IC50 (half-maximal inhibitory concentration): Inactive
Human CYP1A2 [5]
  CYP1A2 IC50 (half-maximal inhibitory concentration): Inactive
Human CYP2C9 [3]; [14]
  IC50: 38.2 µM
Human CYP2C19 [4]; [9]
  IC50: 19.3 µM
Human CYP2D6; [15]
  IC50: 47 µM
CYP3A4; [10]
  IC50: 0.8 µM

## O=C1C(=O)c2cccc3cccc1c23 [Acenaphthenequinone]
Human CYP2C9 [6]
  CYP2C9 AC50 (half-maximal activity concentration): Inconclusive inhibitor
Human CYP1A2 [2]; [11]
  AC50: 7.99 µM
Human CYP2C19 [4]
  AC50: 35.7 µM
Human CYP2D6; [12]
  AC50: 23.4 µM
CYP3A4; [13]
  AC50: 23.7 µM

## CNC(=O)Oc1cc(C)cc(C(C)C)c1 [Promecarb]
Human CYP2C9 [6]
  CYP2C9 AC50 (half-maximal activity concentration): Inactive
Human CYP1A2 [2]; [11]
  AC50: 26.9 µM
Human CYP2C19 [4]
  AC50: 42.2 µM
Human CYP2D6; [12]
  AC50: 58.1 µM
CYP3A4; [13]
  AC50: 25.3 µM

## CCCCCCCC(=O)Oc1c(Br)cc(C#N)cc1Br [Bromoxynil octanoate]
Human CYP1A2 [2]; [11]
  AC50: 15 µM
Human CYP2C9 [3]; CYP2C9 AC50 (half-maximal activity concentration)
  AC50: 34.5 µM
Human CYP2C19 [4]
  AC50: 32.5 µM
Human CYP2D6; [12]
  AC50: 85.8 µM
CYP3A4; [13]
  AC50: 15.4 µM
